{"source": "patent US6420405B2", "about": "“Pharmaceutical composition for angiotensin II-mediated diseases” (Takeda Chemical Industries, Ltd., priority 1993, dated 2002)", "format_in_all_cases": "in vivo, rat", "key": {"[1]": {"system": "Spontaneously Hypertensive Rats (SHR)", "assay": "Antihypertensive activity in SHR by co-administration with a diuretic drug (Test Example 1, tail cuff)", "details": "for blood pressure, 1 week / blood pressure, 2 weeks / blood pressure, 1 day: 5 hr after administration; for blood pressure, 1 week / blood pressure, 2 weeks / blood pressure, 1 day / blood pressure, Before admin.: male SHR; for blood pressure, Before admin.: before administration (baseline); for antihypertensive action: SHR", "description": "Antihypertensive Activity in Spontaneously Hypertensive Rats (SHR) by the Co-administration with a Diuretic Drug Method: […] The respective groups were administered orally with the compound 1(0.1 or 1 mg/kg,p.o.) or HCT (10 mg/kg, p.o.) alone or both drugs simultaneously once a day for two weeks."}, "[2]": {"system": "Spontaneously Hypertensive Rats (SHR)", "assay": "Antihypertensive activity in SHR by co-administration with a diuretic drug (Test Example 3, compound 2, tail cuff)", "details": "for blood pressure, 1 week / blood pressure, 2 weeks / blood pressure, 1 day: 5 hr after administration; for blood pressure, 1 week / blood pressure, 2 weeks / blood pressure, 1 day / blood pressure, Before admin.: male SHR; for blood pressure, Before admin.: before administration (baseline); for antihypertensive action: SHR", "procedure": "Method: Male SHR of 20 week old were divided into 6 groups (five animals in one group). The respective groups were administered orally with the compound 2 (0.1 or 1 mg/kg,p.o.) or HCT (10 mg/kg, p.o.) alone or both drugs simultaneously once a day for two weeks. On the first, 7th and 14th day at 5 hr after the administration, blood pressure of each test animal was measured by the tail cuff method under unanesthesia."}, "[3]": {"system": "Spontaneously Hypertensive Rats (SHR)", "assay": "Antihypertensive activity in SHR by co-administration with a calcium antagonistic drug (Test Example 2, tail cuff)", "details": "for blood pressure, 1 week / blood pressure, 2 weeks / blood pressure, 1 day: 5 hr after administration; for blood pressure, 1 week / blood pressure, 2 weeks / blood pressure, 1 day / blood pressure, Before admin.: male SHR; for blood pressure, Before admin.: before administration (baseline)", "description": "Antihypertensive Activity in Spontaneously Hypertensive Rats (SHR) by the Co-administration with a Calcium Antagonistic Drug\nMethod: Male SHR of 20 week old were divided into six groups (five animals per group). The respective groups were administered orally with the compound 1 (0.1 or 1 mg/kg, p.o.) or MDP (3 mg/kg, p.o.) alone or with a mixture of them once a day for two weeks. On the first, 7th and 14th day at 5 hr after the administration, blood pressure of each test animal was measured by the tail cuff method under unanesthesia."}}}
{"smiles": "NS(=O)(=O)c1cc2c(cc1Cl)NCNS2(=O)=O", "note": "[HCT, hydrochlorothiazide, reference compound]", "values": [{"measurement": "blood pressure, 1 week", "setting": "[1]; HCT 10 mg/kg/day p.o.", "value": "177 ± 3", "unit": "mmHg"}, {"measurement": "blood pressure, 2 weeks", "setting": "[1]; HCT 10 mg/kg/day p.o.", "value": "181 ± 2", "unit": "mmHg"}, {"measurement": "blood pressure, 1 day", "setting": "[1]; HCT 10 mg/kg/day p.o.", "value": "178 ± 3", "unit": "mmHg"}, {"measurement": "blood pressure, Before admin.", "setting": "[1]; HCT 10 mg/kg/day p.o.", "value": "186 ± 3", "unit": "mmHg"}, {"measurement": "antihypertensive action", "setting": "[1]; HCT alone, 10 mg/kg/day, p.o.", "value": "did not show antihypertensive action"}, {"measurement": "blood pressure, 1 week", "setting": "[2]; HCT 10 mg/kg/day p.o.", "value": "190 ± 5", "unit": "mmHg"}, {"measurement": "blood pressure, 2 weeks", "setting": "[2]; HCT 10 mg/kg/day p.o.", "value": "195 ± 3", "unit": "mmHg"}, {"measurement": "blood pressure, 1 day", "setting": "[2]; HCT 10 mg/kg/day p.o.", "value": "188 ± 5", "unit": "mmHg"}, {"measurement": "blood pressure, Before admin.", "setting": "[2]; HCT 10 mg/kg/day p.o.", "value": "206 ± 5", "unit": "mmHg"}, {"measurement": "antihypertensive action", "setting": "[2]; HCT alone, 10 mg/kg/day, p.o.", "value": "did not show antihypertensive action"}]}
{"smiles": "CCOc1nc2cccc(C(=O)O)c2n1Cc1ccc(-c2ccccc2-c2nc(=O)o[nH]2)cc1", "note": "[Cpd. 2, 2-ethoxy-1-[[2′-(2,5-dihydro-5-oxo-1,2,4-oxadiazole-3-yl)biphenyl-4-yl]methyl]-1H-benzimidazole-7-carboxylic acid]", "values": [{"measurement": "blood pressure, 1 week", "setting": "[2]; Cpd. 2 0.1 mg/kg/day p.o.", "value": "182 ± 6", "unit": "mmHg"}, {"measurement": "blood pressure, 2 weeks", "setting": "[2]; Cpd. 2 0.1 mg/kg/day p.o.", "value": "191 ± 8", "unit": "mmHg"}, {"measurement": "blood pressure, 1 day", "setting": "[2]; Cpd. 2 0.1 mg/kg/day p.o.", "value": "187 ± 6", "unit": "mmHg"}, {"measurement": "blood pressure, Before admin.", "setting": "[2]; Cpd. 2 0.1 mg/kg/day p.o.", "value": "215 ± 5", "unit": "mmHg"}, {"measurement": "blood pressure, 1 week", "setting": "[2]; Cpd. 2 1 mg/kg/day p.o.", "value": "161 ± 4", "unit": "mmHg"}, {"measurement": "blood pressure, 2 weeks", "setting": "[2]; Cpd. 2 1 mg/kg/day p.o.", "value": "165 ± 3", "unit": "mmHg"}, {"measurement": "blood pressure, 1 day", "setting": "[2]; Cpd. 2 1 mg/kg/day p.o.", "value": "175 ± 5", "unit": "mmHg"}, {"measurement": "blood pressure, Before admin.", "setting": "[2]; Cpd. 2 1 mg/kg/day p.o.", "value": "219 ± 7", "unit": "mmHg"}, {"measurement": "antihypertensive action", "setting": "[2]; compound 2 alone, 0.1 and 1 mg/kg/day", "value": "dose dependent antihypertensive action"}]}
{"smiles": "COC(=O)C1=C(C)NC(C)=C(C(=O)OCCN2CCN(C(c3ccccc3)c3ccccc3)CC2)C1c1cccc([N+](=O)[O-])c1", "note": "(centres unmarked) [MDP, manidipine, reference compound]", "values": [{"measurement": "blood pressure, 1 week", "setting": "[3]; MDP 3 mg/kg/day p.o.", "value": "132 ± 5", "unit": "mmHg"}, {"measurement": "blood pressure, 2 weeks", "setting": "[3]; MDP 3 mg/kg/day p.o.", "value": "136 ± 7", "unit": "mmHg"}, {"measurement": "blood pressure, 1 day", "setting": "[3]; MDP 3 mg/kg/day p.o.", "value": "157 ± 2", "unit": "mmHg"}, {"measurement": "blood pressure, Before admin.", "setting": "[3]; MDP 3 mg/kg/day p.o.", "value": "190 ± 5", "unit": "mmHg"}]}
{"smiles": "CCOc1nc2cccc(C(=O)OC(C)OC(=O)OC3CCCCC3)c2n1Cc1ccc(-c2ccccc2-c2nnn[nH]2)cc1", "note": "(racemic) [Cpd. 1, (±)-1-(cyclohexyloxycarbonyloxy)ethyl 2-ethoxy-1-[[2′-(1H-tetrazol-5-yl)biphenyl-4-yl]methyl]-1H-benzimidazole-7-carboxylate]", "values": [{"measurement": "blood pressure, 1 week", "setting": "[1]; Cpd. 1 0.1 mg/kg/day p.o.", "value": "155 ± 3", "unit": "mmHg"}, {"measurement": "blood pressure, 2 weeks", "setting": "[1]; Cpd. 1 0.1 mg/kg/day p.o.", "value": "162 ± 3", "unit": "mmHg"}, {"measurement": "blood pressure, 1 day", "setting": "[1]; Cpd. 1 0.1 mg/kg/day p.o.", "value": "161 ± 5", "unit": "mmHg"}, {"measurement": "blood pressure, Before admin.", "setting": "[1]; Cpd. 1 0.1 mg/kg/day p.o.", "value": "183 ± 2", "unit": "mmHg"}, {"measurement": "blood pressure, 1 week", "setting": "[1]; Cpd. 1 1 mg/kg/day p.o.", "value": "138 ± 2", "unit": "mmHg"}, {"measurement": "blood pressure, 2 weeks", "setting": "[1]; Cpd. 1 1 mg/kg/day p.o.", "value": "135 ± 3", "unit": "mmHg"}, {"measurement": "blood pressure, 1 day", "setting": "[1]; Cpd. 1 1 mg/kg/day p.o.", "value": "153 ± 5", "unit": "mmHg"}, {"measurement": "blood pressure, Before admin.", "setting": "[1]; Cpd. 1 1 mg/kg/day p.o.", "value": "186 ± 2", "unit": "mmHg"}, {"measurement": "antihypertensive action", "setting": "[1]; compound 1 alone, 0.1 and 1 mg/kg/day", "value": "dose dependent antihypertensive action"}, {"measurement": "blood pressure, 1 week", "setting": "[3]; Cpd. 1 0.1 mg/kg/day p.o.", "value": "158 ± 4", "unit": "mmHg"}, {"measurement": "blood pressure, 2 weeks", "setting": "[3]; Cpd. 1 0.1 mg/kg/day p.o.", "value": "160 ± 4", "unit": "mmHg"}, {"measurement": "blood pressure, 1 day", "setting": "[3]; Cpd. 1 0.1 mg/kg/day p.o.", "value": "157 ± 2", "unit": "mmHg"}, {"measurement": "blood pressure, Before admin.", "setting": "[3]; Cpd. 1 0.1 mg/kg/day p.o.", "value": "190 ± 2", "unit": "mmHg"}, {"measurement": "blood pressure, 1 week", "setting": "[3]; Cpd. 1 1 mg/kg/day p.o.", "value": "131 ± 13", "unit": "mmHg"}, {"measurement": "blood pressure, 2 weeks", "setting": "[3]; Cpd. 1 1 mg/kg/day p.o.", "value": "142 ± 4", "unit": "mmHg"}, {"measurement": "blood pressure, 1 day", "setting": "[3]; Cpd. 1 1 mg/kg/day p.o.", "value": "148 ± 3", "unit": "mmHg"}, {"measurement": "blood pressure, Before admin.", "setting": "[3]; Cpd. 1 1 mg/kg/day p.o.", "value": "196 ± 3", "unit": "mmHg"}, {"measurement": "antihypertensive effect", "setting": "[3]; compound 1 alone, 0.1 and 1 mg/kg/day, SHR", "value": "dose dependent antihypertensive effect"}]}
